Test results: patent US20240293339A1, “COMPOUNDS, COMPOSITIONS AND METHODS FOR THE PREVENTION AND/OR TREATMENT OF VARIOUS MITOCHONDRIAL DISEASES OR DISORDERS, INCLUDING FRIEDREICH'S ATAXIA” (Stealth Bio Therapeutics Inc., priority 2021, published 2024)
pEC50: −log10 of the molar value. “Also recorded” adds a separate entry of the source.

Columns and labels:
[1] = Concentration of therapeutic agents in blood and brain tissue in rat following oral administration; type: in vivo; conditions: male SD rats; for Brain level: perfused brain homogenate; for drop in plasma concentration relative to the next larger compound pair: 2-1/3-1 vs vatiquinone/1-1, 4-1/5-1 vs 2-1/3-1; for brain level (in words): summary of Table 1 brain concentration data; for Cmax: male, Sprague-Dawley, rat, plasma, po, 10 mg/kg
Method: Example 7: Study of Concentration of Therapeutic Agents in Blood and Brain Tissue in Rat Following Oral Administration
This study was intended to examine and compare the concentration of the various therapeutic agents tested in blood and brain tissue shortly after oral administration to rats.
The experimental procedures were carried out in accordance with the guidelines of the European Community and local laws and policies and were approved by the Latvian Animal Protection Ethical Committee, Food and Veterinary Service, Riga, Latvia. Animals were housed in the animal facilities at the Latvian Institute of Organic Synthesis (LIOS) under standard conditions (21-23° C., 12 h light-dark cycle) with unlimited access to food (R70 diet, Lantmännen Lantbruk, Sweden) and water. Male Sprague Dawley (SD) rats (8 weeks old at the time of purchase, from Envigo) were used for the study and were allowed an acclimatization period of at least 1 week prior to treatment. No drugs or vaccines were administered before the start of the study. Only healthy animals were included in the study. Animals were weighed on the day of treatment (before treatment) to calculate the required volume of working solution of compound (i.e. therapeutic agent) administered. No drugs except the therapeutic agent to be tested were administered during the study. Rats were dosed orally with compound (1 times weight μL, solution 10 mg/mL, dissolved in sesame oil).
Animals were anaesthetized using 5% isoflurane inhalation at selected time points after administration of test compounds. Then chest was opened and blood drawn from the heart and collected in EDTA coated microtubes (Sarstedt). Transcardial perfusion was performed afterwards by perfusing ice-cold PBS solution for 4 minutes, ˜55 mL total perfusion volume. Afterwards brain tissues were collected in microtubes and frozen in liquid nitrogen. Blood was centrifuged for 3 min at 10000 g within 15 minutes of collection. Plasma was collected in low-binding microtubes (Nerbe plus) by adding 95 μL of plasma to 5 μL of 2% HCOOH to obtain 100 μL of plasma solution with HCOOH end concentration 0.1%. Plasma was frozen in liquid nitrogen and stored at −80° C.
Tissue samples were weighed in 2 mL micro centrifuge tubes. Microtubes were kept on ice throughout the procedure. Tissue homogenates were prepared using acidified (0.1% HCOOH) water by adding 4 times volume to weighed samples. Two metal beads were placed in each micro centrifuge tube and brain tissues homogenized using Bead Ruptor (Omni International, USA) for 60 s using speed 4 ms per cycle. Homogenates (96 uL) were transferred to 1.5 mL low binding micro centrifuge tubes. Homogenates were frozen and kept at −80° C. until sample extraction for LC/MS/MS analysis.
Extraction of spiked SD Rat EDTA plasma or brain homogenate standards was performed by adding to 100 μL of spiked rat plasma or brain homogenate standard sample of 400 μL of deproteinization solution, 1% formic acid in MeOH with IS (reserpine 15 ng/mL). Samples were vortex mixed for 10 sec at 2800 rpm and incubated on orbital shaker for 10 min at 200 rpm. Then vortex mixed for 10 sec at 2800 rpm and centrifugated at 12000 rpm for 30 min in 5° C. Supernatants were transferred to LC vials and used for analysis. Extraction of rat EDTA plasma or brain homogenate analytical samples was performed by adding to 96 μL of rat plasma or brain homogenate analytical sample of 4 μL of DMSO, vortex mix the samples. Then 400 μL of deproteinization solution, 1% formic acid in MeOH with IS (reserpine 15 ng/mL) were added. Samples were vortex mixed for 10 sec at 2800 rpm and incubated on orbital shaker for 10 min at 200 rpm. Then vortex mixed for 10 sec at 2800 rpm and centrifugated at 12000 rpm for 30 min in 5° C. Supernatants were transferred to LC vials and used for analysis.
Data collected for each of the various therapeutic agents tested (i.e. vatiquinone and Compounds 1-1, 2-1, 3-1, 4-1 and 5-1 are summarized in Table 1, below.

[2] = test system: frataxin deficient fibroblasts (Friedreich's ataxia patient fibroblast cell line GM03665); experiment: Frataxin deficient fibroblast viability assay (the BSO Assay); type: cell-based, human; conditions: for pEC50: Homo sapiens, Fibroblast, FA patient fibroblasts pretreated with drug 250 nM down to 6.125 nM the day before BSO 10 mM, MTT 48 hrs later; for BSO assay activity compared with vatiquinone (in words) / protection against ferroptosis (in words): summary of Table 1 BSO assay data
Method: Example 6: Frataxin Deficient Fibroblast Viability Assay (the “BSO Assay”)
This Example was used to evaluate the various new compositions for their potential efficacy in the treatment of Friedreich's Ataxia (FA or FRDA) based on their potential to inhibit ferroptosis based on this BSO assay—performed substantially as described in the above cited Reference (Matthias et al.).
The stock solutions of the test articles (and control compounds) were prepared in dimethyl sulfoxide (DMSO at 10 mM). Working stock solutions (2 times concentrated) were prepared on the day of the experiment in respective cell culture medium to be used for assay (detailed medium description below). A listing of compounds used as test articles in this Example 12 are found in Table 1, below.
A patient derived frataxin deficient fibroblast cell line was obtained from Coriell Institute. More specifically, the following cell lines/DNA samples were obtained from the NIGMS Human Genetic Cell Repository at the Coriell Institute for Medical Research: GM03665. To evaluate importance of various growth conditions on cell susceptibility to BSO toxicity cells were grown on:
MEM (Sigma-Aldrich) 15% Fetal Bovine Serum (FBS) without growth factors;
MEM (Sigma-Aldrich) 15% FBS with growth factors (Catalogue number 100-18B, Recombinant Human FGF-basic (154 a.a.) and catalogue number AF-100-15, Animal-Free Recombinant Human EGF from Peprotech);
MEM199/MEM EBS (Bioconcept Ltd.) 10% FBS, insulin 10 μg/ml, L-glutamine 2 mM with growth factors (Catalogue number 100-18B, Recombinant Human FGF-basic (154 a.a.) and catalogue number AF-100-15, Animal-Free Recombinant Human EGF from Peprotech).
To conduct an experiment, fibroblast cells (from all growth conditions) were seeded (100 μL (cells 3×10∧3/well) on 96-well plates in MEM199/MEM EBS medium 10% FBS, insulin 10 μg/mL, L-glutamine 2 mM with growth factors and allowed to grow on plate for 24 hrs. After 24 hrs., media was removed and then test compounds of interest were added (100 μL, 2 times concentrated stock) to 96-well plates (end DMSO concentration not exceeding 0.5%) and incubated for 24 hours. Then L-buthionine-sulfoximine (BSO, from Acros Organics, Cat. No. 235520010) was added (100 μL, 2 times concentrated stock) at end concentrations ranging from 1 to 10 mM. Both test compounds and BSO were dissolved in MEM199/MEM EBS medium 10% FBS, insulin 10 μg/mL, L-glutamine 2 mM with growth factors. Cell viability was monitored and either after 24- or 48-hours cell viability was assayed by MTT (Thiazolyl blue tetrazolium bromide) assay. For the MTT assay, media was removed and 100 μL of MTT 1 mg/mL was added, incubated for 2 hours at +37° C., then medium was removed and 100 μL of isopropanol added to dissolve sediment. Absorption was measured at 570 (OD570) and 650 (OD650) nm wavelengths. Control cells (vehicle instead of BSO and compound) and vehicle control (with BSO, but vehicle instead of test compound) were treated in the same manner as cells with BSO and compound. All cell media contained penicillin and streptomycin 100 U/mL each.
Absorption readouts were processed as follows: ValueΔ=ValueOD570-ValueOD650 and the obtained values were used to calculate cell viability as % of control cell (i.e., no BSO, no compound, just vehicle) viability.
Except as otherwise indicated in Table 1, all samples were run in at least 3 replicates for test compounds and at least 8 replicates for controls (i.e., both control (no BSO, no compound) and vehicle control (i.e., with BSO, no compound). Exact N per data points are indicated in the figures/table legends. Results for the compounds (test articles and controls) tested are listed in Table 1, below.
This is a cell-based assay measuring cytotoxicity which results from oxidative stress subsequent to depletion of endogenous glutathione defense mechanisms. […]

[3] = 10 mg/mL solution in sesame oil, LC/MS/MS
[4] = 10 mg/mL solution in sesame oil, EDTA plasma, LC/MS/MS

For `CC(C)=CCC/C(C)=C/CC[C@](C)(O)CCC1=C(C)C(=O)C(C)=C(C)C1=O` [Compound 3-1, (S,E)-2-(3-hydroxy-3,7,11-trimethyldodeca-6,10-dien-1-yl)-3,5,6-trimethylcyclohexa-2,5-diene-1,4-dione], the Brain level [1, 3] was 22.0 ng/g, the “drop in plasma concentration relative to the next larger compound pair” value [1] was ~5 fold and the “brain level (in words)” value [1] was “comparable to those observed with vatiquinone”. The Cmax [1, 4] was ~100 ng/mL, the pEC50 [2] was 7.39 and the “BSO assay activity compared with vatiquinone (in words)” value [2] was “as good as vatiquinone”. The “protection against ferroptosis (in words)” value (“protection” for short) [2] was “protective against ferroptosis”.
For `CC(C)=CCC[C@](C)(O)CCC1=C(C)C(=O)C(C)=C(C)C1=O` [Compound 5-1, (S)-2-(3-hydroxy-3,7-dimethyloct-6-en-1-yl)-3,5,6-trimethylcyclohexa-2,5-diene-1,4-dione], the Brain level [1, 3] was 0 ng/g, the “drop in plasma concentration relative to the next larger compound pair” value [1] was ~20 fold and the “brain level (in words)” value [1] was “no concentration of these compounds detected”. For the same compound, the Cmax [1, 4] was 3.2 ng/mL, the pEC50 [2] was 7.41 and the “BSO assay activity compared with vatiquinone (in words)” value [2] was “as good as vatiquinone”. The “protection” value [2] was “protective against ferroptosis”.
In the case of `CC(C)=CCC/C(C)=C/CC[C@@](C)(O)CCC1=C(C)C(=O)C(C)=C(C)C1=O` [Compound 2-1, (R,E)-2-(3-hydroxy-3,7,11-trimethyldodeca-6,10-dien-1-yl)-3,5,6-trimethylcyclohexa-2,5-diene-1,4-dione], the Brain level [1, 3] was 24.5 ng/g, the “drop in plasma concentration relative to the next larger compound pair” value [1] was ~5 fold and the “brain level (in words)” value [1] was “comparable to those observed with vatiquinone”. For the same compound, the Cmax [1, 4] was ~100 ng/mL, the pEC50 [2] was 6.85 and the “BSO assay activity compared with vatiquinone (in words)” value [2] was “not quite as effective as vatiquinone”. For the same compound, the “protection” value [2] was “protective against ferroptosis”.
`CC(C)=CCC/C(C)=C/CC/C(C)=C/CC[C@](C)(O)CCC1=C(C)C(=O)C(C)=C(C)C1=O` [Compound 1-1, 2-[(3S,6E,10E)-3-hydroxy-3,7,11,15-tetramethyl-6,10,14-hexadecatrien-1-yl]-3,5,6-trimethyl-2,5-cyclohexadiene-1,4-dione] showed a Brain level [1, 3] of 8.3 ng/g, a Cmax [1, 4] of ~500 ng/mL and a pEC50 [2] of 7.78. For the same compound, the “BSO assay activity compared with vatiquinone (in words)” value [2] was “at least equivalent to that of vatiquinone; also recorded: as good as vatiquinone” and the “protection” value [2] was “protective against ferroptosis”.
For `CC(C)=CCC/C(C)=C/CC/C(C)=C/CC[C@@](C)(O)CCC1=C(C)C(=O)C(C)=C(C)C1=O` [vatiquinone, 2-[(3R,6E, 10E)-3-Hydroxy-3,7,11,15-tetramethyl-6,10,14-hexadecatrien-1-yl]-3,5,6-trimethyl-2,5-cyclohexadiene-1,4-dione, reference compound], the “Plasma Cmax” value [1, 4] was 457 ng/mL, the Brain level [1, 3] was 20.8 ng/g and the Cmax [1, 4] was ~500 ng/mL. For the same compound, the pEC50 [2] was 7.39 and the “protection” value [2] was “protective against ferroptosis”.
For `CC(C)=CCC[C@@](C)(O)CCC1=C(C)C(=O)C(C)=C(C)C1=O` [Compound 4-1, (R)-2-(3-hydroxy-3,7-dimethyloct-6-en-1-yl)-3,5,6-trimethylcyclohexa-2,5-diene-1,4-dione], the Brain level [1, 3] was 0 ng/g, the “drop in plasma concentration relative to the next larger compound pair” value [1] was ~20 fold and the “brain level (in words)” value [1] was “no concentration of these compounds detected”. The Cmax [1, 4] was 5.5 ng/mL, the pEC50 [2] was 7.04 and the “BSO assay activity compared with vatiquinone (in words)” value [2] was “not quite as effective as vatiquinone”. The “protection” value [2] was “protective against ferroptosis”.
